Activity calls are given as the source filed them. The calls are words filed in the database; no cut-off is given here.
Assays:
Trypanosoma cruzi [1] = assay: (§1) Antitrypanosomal activity against Trypanosoma cruzi MHOM/Pe/2011/Arequipa DTU 5 trypomastigotes infected in Balb/c mouse assessed as reduction in parasitaemia level at 20 mg/kg, po once daily for 5 consecutive days starting from day 10 post infection measured on day 40 post infection by Neubauer chamber method; assay type: functional, organism-based
Trypanosoma cruzi [2] = assay: as §1, with “23” for “40”, “method relative to control” for “method”; assay type: functional; parameters: scale not given: the % may be the effect or the level left
[3] = Cardiotoxicity in Balb/c mouse infected with Trypanosoma cruzi MHOM/Pe/2011/Arequipa DTU 5 trypomastigotes assessed as decrease in ratio of creatine kinase in muscle to brain at 20 mg/kg, po once daily for 5 consecutive days starting from day 75 post infection measured on day 81 post infection relative to control; assay type: toxicity, organism-based; details: in vivo
[4] = (§2) Hepatotoxicity in Balb/c mouse infected with Trypanosoma cruzi MHOM/Pe/2011/Arequipa DTU 5 trypomastigotes assessed as increase in ratio of serum AST to GOT level at 20 mg/kg, po once daily for 5 consecutive days starting from day 10 post infection measured on day 127 post infection by biochemical analysis relative to control; assay type: toxicity, organism-based; details: in vivo
[5] = Hepatotoxicity in Balb/c mouse infected with Trypanosoma cruzi MHOM/Pe/2011/Arequipa DTU 5 trypomastigotes assessed as increase in serum ALT to GPT level at 20 mg/kg, po once daily for 5 consecutive days starting from day 10 post infection measured on day 16 post infection relative to control; assay type: toxicity, organism-based; details: in vivo
[6] = (§3) Hepatotoxicity in Balb/c mouse infected with Trypanosoma cruzi MHOM/Pe/2011/Arequipa DTU 5 trypomastigotes assessed as increase in total bilirubin level at 20 mg/kg, po once daily for 5 consecutive days starting from day 75 post infection measured on day 127 post infection relative to control; assay type: toxicity, organism-based; details: in vivo
[7] = Hepatotoxicity in Balb/c mouse infected with Trypanosoma cruzi MHOM/Pe/2011/Arequipa DTU 5 trypomastigotes assessed as increase in alkaline phosphatase level at 20 mg/kg, po once daily for 5 consecutive days starting from day 10 post infection measured on day 16 post infection relative to control; assay type: toxicity, organism-based; details: in vivo
[8] = Hepatotoxicity in Balb/c mouse infected with Trypanosoma cruzi MHOM/Pe/2011/Arequipa DTU 5 trypomastigotes assessed as increase in alkaline phosphatase level at 20 mg/kg, po once daily for 5 consecutive days starting from day 75 post infection measured on day 127 post infection relative to control; assay type: toxicity, organism-based; details: in vivo
Trypanosoma cruzi [9] = assay: Trypanocidal activity against Trypanosoma cruzi MHOM/Pe/2011/Arequipa DTU 5 epimastigotes after 72 hrs by resazurin dye based assay; assay type: functional, organism-based; details: MHOM/Pe/2011/Arequipa DTU 5, 72 h
Trypanosoma cruzi [10] = assay: Trypanocidal activity against Trypanosoma cruzi MHOM/Pe/2011/Arequipa DTU 5 trypomastigotes derived from infected Balb/c mouse after 72 hrs by resazurin dye based assay; assay type: functional, organism-based; details: MHOM/Pe/2011/Arequipa DTU 5, 72 h
Trypanosoma cruzi [11] = assay: Trypanocidal activity against Trypanosoma cruzi IRHOD/CO/2008/SN3 DTU 1 amastigotes infected in African green monkey Vero cells after 72 hrs by Giemsa-staining based microscopic assay; assay type: functional, organism-based; details: IRHOD/CO/2008/SN3 DTU 1, Vero
Trypanosoma cruzi [12] = assay: Trypanocidal activity against Trypanosoma cruzi TINF/CH/1956/Tulahuen DTU 6 epimastigotes after 72 hrs by resazurin dye based assay; assay type: functional, organism-based; details: TINF/CH/1956/Tulahuen DTU 6, 72 h
Trypanosoma cruzi [13] = assay: Trypanocidal activity against Trypanosoma cruzi TINF/CH/1956/Tulahuen DTU 6 amastigotes infected in African green monkey Vero cells after 72 hrs by Giemsa-staining based microscopic assay; assay type: functional, organism-based; details: TINF/CH/1956/Tulahuen DTU 6, Vero
[14] = Selectivity index, ratio of IC50 for African green monkey Vero cells to IC50 for Trypanosoma cruzi IRHOD/CO/2008/SN3 DTU 1 epimastigotes; assay type: toxicity; details: read-out: Ratio IC50
[15] = Selectivity index, ratio of IC50 for African green monkey Vero cells to IC50 for Trypanosoma cruzi TINF/CH/1956/Tulahuen DTU 6 epimastigotes; assay type: toxicity; details: read-out: Ratio IC50
[16] = Selectivity index, ratio of IC50 for African green monkey Vero cells to IC50 for Trypanosoma cruzi TINF/CH/1956/Tulahuen DTU 6 amastigotes infected in African green monkey Vero cells; assay type: toxicity; details: read-out: Ratio IC50
[17] = Selectivity index, ratio of IC50 for African green monkey Vero cells to IC50 for Trypanosoma cruzi TINF/CH/1956/Tulahuen DTU 6 trypomastigotes derived from infected Balb/c mouse; assay type: toxicity; details: read-out: Ratio IC50
Trypanosoma cruzi [18] = assay: as §1, with “measured every 2 to 3 days up to” for “measured on”, “day 50 post infection starting from day 7” for “day 40”; assay type: functional, organism-based
Trypanosoma cruzi [19] = assay: Antitrypanosomal activity against Trypanosoma cruzi MHOM/Pe/2011/Arequipa DTU 5 epimastigotes assessed as effect on parasite glycolytic pathway by measuring decrease in L-alanine excretion at IC25 after 72 hrs by 1H NMR method; assay type: functional, organism-based
Trypanosoma cruzi [20] = assay: Antitrypanosomal activity against Trypanosoma cruzi MHOM/Pe/2011/Arequipa DTU 5 epimastigotes assessed as effect on parasite glycolytic pathway by measuring decrease in D-lactate excretion at IC25 after 72 hrs by 1H NMR method; assay type: functional, organism-based
[21] = target: Superoxide dismutase [Cu-Zn] (Homo sapiens, UniProt P00441); assay: Inhibition of human erythrocyte CuZn-SOD by UV-Visible spectrophotometric method
Trypanosoma cruzi [22] = assay: Trypanocidal activity against Trypanosoma cruzi MHOM/Pe/2011/Arequipa DTU 5 amastigotes infected in African green monkey Vero cells assessed as reduction in infected cells at <= 12 uM after 72 hrs by Giemsa-staining based assay; assay type: functional, organism-based
[23] = Nephrotoxicity in Balb/c mouse infected with Trypanosoma cruzi MHOM/Pe/2011/Arequipa DTU 5 trypomastigotes assessed as decrease in serum uric acid level at 20 mg/kg, po once daily for 5 consecutive days starting from day 10 post infection measured on day 127 post infection relative to control; assay type: toxicity, organism-based; details: in vivo
[24] = Nephrotoxicity in Balb/c mouse infected with Trypanosoma cruzi MHOM/Pe/2011/Arequipa DTU 5 trypomastigotes assessed as decrease in serum uric acid level at 20 mg/kg, po once daily for 5 consecutive days starting from day 75 post infection measured on day 81 post infection relative to control; assay type: toxicity, organism-based; details: in vivo
[25] = as §3, with “change” for “increase”, “10” for “75”, “by biochemical analysis (reference value: 0.21 mg/dl)” for “relative to control”; assay type: toxicity, organism-based; details: in vivo
[26] = as §3, with “change” for “increase”, “(reference value: 0.23 mg/dl)” for “relative to control”; assay type: toxicity, organism-based; details: in vivo
Trypanosoma cruzi [27] = assay: Trypanocidal activity against Trypanosoma cruzi MHOM/Pe/2011/Arequipa DTU 5 amastigotes infected in African green monkey Vero cells assessed as infected cells at 50 uM after 72 hrs by Giemsa-staining based assay; assay type: functional
Trypanosoma cruzi [28] = assay: Antitrypanosomal activity against Trypanosoma cruzi MHOM/Pe/2011/Arequipa DTU 5 epimastigotes assessed as effect on parasite glycolytic pathway by measuring increase in D-lactate excretion at IC25 after 72 hrs by 1H NMR method; assay type: functional, organism-based
Trypanosoma cruzi [29] = assay: Antitrypanosomal activity against Trypanosoma cruzi MHOM/Pe/2011/Arequipa DTU 5 epimastigotes assessed as effect on parasite glycolytic pathway by measuring increase in ethanol excretion at IC25 after 72 hrs by 1H NMR method; assay type: functional
[30] = as §2, with “change” for “increase”, “(reference value: 179 U/L)” for “relative to control”; assay type: toxicity, organism-based; details: in vivo

Superoxide dismutase [Cu-Zn], sequence (P00441 whole entry): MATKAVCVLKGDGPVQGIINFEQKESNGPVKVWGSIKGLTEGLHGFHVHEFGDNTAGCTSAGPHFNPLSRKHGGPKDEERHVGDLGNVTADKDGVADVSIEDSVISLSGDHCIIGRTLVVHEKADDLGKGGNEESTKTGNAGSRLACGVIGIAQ

With `O=C(Cn1ccnc1[N+](=O)[O-])NCc1ccccc1` [BENZNIDAZOLE] the Activity (Trypanosoma cruzi [1]) was “Active”, the Activity (Trypanosoma cruzi [2]) was 70% and the Activity [3] was 10 to 20 U/L. It also gave an Activity [4] of over 40 U/L, an Activity [5] of over 40 U/L and an Activity [6] of 20%. For the same molecule, the Activity [7] was 20 to 30 U/L and the Activity [8] was 20 to 30 U/L.
Molecule `CCCCCCNc1c(N(C)CCCN(C)C)c(=O)c1=O` has an IC50 (Trypanosoma cruzi [9]) of 20.3 µM, an IC50 (Trypanosoma cruzi [10]) of 6.5 µM and an IC50 (Trypanosoma cruzi [11]) of 50 µM. The IC50 (Trypanosoma cruzi [12]) was 14.7 µM, the IC50 (Trypanosoma cruzi [13]) was 38.3 µM and the selectivity ratio [14] was 63. The selectivity ratio [15] was 61.3, the selectivity ratio [16] was 23.5 and the selectivity ratio [17] was 52.2. For the same molecule, the Activity (Trypanosoma cruzi [18]) was “inactive”, the Activity (Trypanosoma cruzi [19]) was “Active” and the Activity (Trypanosoma cruzi [20]) was “Active”. The IC50 [21] was over 100 µM, the Activity (Trypanosoma cruzi [22]) was “inactive” and the Activity [23] was 10 to 20 mg/dL. It also gave an Activity [24] of 10 to 20 mg/dL, an Activity [4] of 20 to 30 U/L and an Activity [25] of 0.21 mg/dL. The Activity [26] was 0.2 mg/dL and the Activity [7] was 10 to 20 U/L.
In the case of `CCCCCCCCCCCCCCCCNc1c(N(C)CCCN(C)C)c(=O)c1=O`, the IC50 (Trypanosoma cruzi [9]) is reported as 7.3 µM, the IC50 (Trypanosoma cruzi [10]) is reported as 4.4 µM and the IC50 (Trypanosoma cruzi [11]) is reported as 18.9 µM. For the same molecule, the IC50 (Trypanosoma cruzi [12]) was 9.5 µM, the IC50 (Trypanosoma cruzi [13]) was 6.4 µM and the selectivity ratio [14] was 42.5. For the same molecule, the selectivity ratio [15] was 71.1, the selectivity ratio [16] was 106 and the selectivity ratio [17] was 144. For the same molecule, the Activity (Trypanosoma cruzi [27]) was 0, the Activity (Trypanosoma cruzi [18]) was “Active” and the Activity (Trypanosoma cruzi [1]) was “Active”. For the same molecule, the Activity (Trypanosoma cruzi [2]) was 80%, the IC50 [21] was over 100 µM and the Activity (Trypanosoma cruzi [28]) was “Active”. The Activity (Trypanosoma cruzi [29]) was 51%, the Activity [24] was 20 to 30 mg/dL and the Activity [30] was 179 U/L. The Activity [25] was 0.21 mg/dL and the Activity [6] was 10%.
